In patent US8680052B1, “Methods of treating, reducing the incidence of, and/or preventing ischemic events” (The Medicines Company, priority 2013, dated 2014):

Assays:
P2Y12 receptor = biological target: T1, P2Y12 receptor (Homo sapiens, UniProt Q9H244); assay: Example 2 substudy: platelet function by VerifyNow P2Y12 Assay; format: in vivo
T1 construct: from tissue; host or cells: platelets in whole blood of patients
Protocol: Platelet function parameters were measured using the VerifyNow® P2Y12 Assay (Accumetrics, San Diego, Calif.). Samples were taken before study drug administration, at approximately 2 hours (during cangrelor/placebo infusion), and 10 hours or next day following randomization.

[1] = test system: patients with atherosclerosis undergoing PCI; format: in vivo; details: human, in vivo, 48 h
Protocol: The primary safety end point was severe bleeding not related to coronary-artery bypass grafting, according to the Global Use of Strategies to Open Occluded Coronary Arteries (GUSTO) criteria, at 48 hours. Several other bleeding definitions were also applied.

platelets = assay: Example 4: platelet activation measured by flow cytometry; format: in vivo, human; details: P-selectin expression, 1 μM ADP
Protocol: The study involved 12 patients who met the criteria of being 18-75 years of age, having coronary artery disease (CAD) documented by a previous MI or coronary revascularization, and taking 81 mg of aspirin daily. […] Prohibited concomitant medications included strong and potent CYP3A inhibitors, simvastatin and lovastatin at doses more than 40 mg/day, omeprazole or esomeprazole, and digoxin. Use of non-steroidal anti-inflammatory agents was discouraged during study participation but not prohibited.
Each patient was administered a 30 μg/kg bolus of cangrelor followed immediately by a 2 hr infusion at a rate of 4.0 μg/kg/min. A loading dose of ticagrelor (180 mg) was given after 0.5 hr or 1.25 hr (n=6 for each). Blood for pharmacodynamic platelet function studies was taken after 0.5 or 1.25 hr (corresponding to the time of ticagrelor load, n=6 for each), and then at 1.75, 2, 2.25, 2.5, 2.75, 3, 4, and 5.25 hr. Patients were assigned randomly to receive either 6 (n=6) or 7 (n=6) doses of ticagrelor to be taken every 12 hours following the discontinuation of the infusion of cangrelor. On study day 5, each patient was administered a 30 μg/kg bolus of cangrelor followed immediately by a 2 hr infusion at a rate of 4.0 μg/kg/min. Blood for pharmacodynamic assessment was taken after 1 and 2 hr. Adverse events were queried throughout study participation that ended with a telephone interview performed on study day 10-12.
Pharmacodynamic assessment included light transmission aggregometry (LTA), VerifyNow® P2Y12 assay, vasodilator-stimulated phosphoprotein (VASP) index, and platelet activation measured with the use of flow cytometry. Assessment of LTA, VerifyNow®, and platelet activation with the use of flow cytometry was performed within 30 min of blood being taken. In the case of flow cytometry, samples were processed to fixation and then batched for analysis. For VASP, index samples were batched and processed as recommended by the vendor within 2 h of blood being taken. This approach limited the time from fixation of VASP index to flow analysis to less than 1 h.
LTA induced by 5 μM and 20 μM adenosine diphosphate (ADP) was quantified ex vivo (i.e. in non-adjusted platelet rich plasma). Platelet-poor plasma was set as 100% aggregation, and both maximal (peak) and terminal (at 300 s) aggregation were measured with a PAP4 aggregometer (BioData, Horsham, Pa.). VerifyNow® P2Y12 assay (Accumetrics Inc, San Diego, Calif.) that measures the effects of drugs on the P2Y12 receptor by activating platelets with prostaglandin El in addition to ADP was used in accordance with the instructions provided by the manufacturer. Platelet reactivity was expressed in P2Y12 reaction units (PRU). Activation of platelets was identified with the use of flow cytometry as previously described.^17. And to determine the VASP index, a commercially available kit (Diagnostica Stago, Inc, Parsippany NJ) was used. ^17 Schneider D J, Sobel B E. Streamlining the design of promising clinical trials: in-vitro testing of antithrombotic regimens and multiple agonists of platelet activation. Coron Artery Dis. 2009; 20:175-8.

[2] = reference 5.25 h, Ticagrelor at 0.5 h
[3] = reference 5.25 h, Ticagrelor at 1.25 h

T1 sequence (Q9H244 whole entry): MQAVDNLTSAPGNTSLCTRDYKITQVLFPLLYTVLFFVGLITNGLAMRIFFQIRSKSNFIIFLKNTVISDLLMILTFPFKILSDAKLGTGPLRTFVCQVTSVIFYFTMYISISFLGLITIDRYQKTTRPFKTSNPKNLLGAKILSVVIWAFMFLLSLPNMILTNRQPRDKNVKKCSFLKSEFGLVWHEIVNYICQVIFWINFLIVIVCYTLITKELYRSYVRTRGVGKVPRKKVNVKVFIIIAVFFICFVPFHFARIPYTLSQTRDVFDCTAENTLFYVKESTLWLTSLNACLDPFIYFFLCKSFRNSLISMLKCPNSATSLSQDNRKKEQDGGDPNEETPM

## COC(=O)[C@H](c1ccccc1Cl)N1CCc2sccc2C1 [Clopidogrel, clopidogrel, reference compound]
P2Y12 receptor; 12-24 hours after discontinuation of the cangrelor infusion
  median PRU (VerifyNow P2Y12 assay): 206 PRU
P2Y12 receptor; during the study drug infusion (approx. 2 hours)
  median PRU (VerifyNow P2Y12 assay): 277 PRU
[1]
  Any blood transfusion: 16/5527 (0.3) number/total number (percent)
  GUSTO-defined bleeding, primary safety end point: severe or life-threatening bleeding: 6/5527 (0.1) number/total number (percent)
  GUSTO-defined moderate bleeding: 13/5527 (0.2) number/total number (percent)
  GUSTO-defined severe or moderate bleeding: 19/5527 (0.3) number/total number (percent)
  TIMI-defined major bleeding: 5/5527 (0.1) number/total number (percent)
  TIMI-defined major or minor bleeding: 8/5527 (0.3) number/total number (percent)
  TIMI-defined minor bleeding: 3/5527 (0.1) number/total number (percent)
  adverse events that led to discontinuation of the study drug: 0.4%
  rate of GUSTO-defined severe bleeding (primary safety end point): 0.11%
  rate of adverse events related to treatment: 19.1%
  transient dyspnea: 0.3%

## CCCSc1nc(N[C@@H]2C[C@H]2c2ccc(F)c(F)c2)c2nnn([C@@H]3C[C@H](OCCO)[C@@H](O)[C@H]3O)c2n1 [ticagrelor]
platelets; 2.25 h, All
  Flow Cytometry IPR: 84 ± 8
  Flow Cytometry PR: 7.8 ± 3.7
platelets; 2.25 h, Ticagrelor at 0.5 h
  Flow Cytometry IPR: 86 ± 8
  Flow Cytometry PR: 7.5 ± 2.4
platelets; 2.25 h, Ticagrelor at 1.25 h
  Flow Cytometry IPR: 83 ± 9
  Flow Cytometry PR: 8 ± 4.9
platelets; 2.5 h, All
  Flow Cytometry IPR: 67 ± 29
  Flow Cytometry PR: 14 ± 8.6
platelets; 2.5 h, Ticagrelor at 0.5 h
  Flow Cytometry IPR: 81 ± 17
  Flow Cytometry PR: 9.2 ± 5.9
platelets; 2.5 h, Ticagrelor at 1.25 h
  Flow Cytometry IPR: 53 ± 34
  Flow Cytometry PR: 19 ± 8.5
platelets; 2.75 h, All
  Flow Cytometry IPR: 80 ± 17
  Flow Cytometry PR: 8.8 ± 5.6
platelets; 2.75 h, Ticagrelor at 0.5 h
  Flow Cytometry IPR: 82 ± 13
  Flow Cytometry PR: 9.3 ± 4.7
platelets; 2.75 h, Ticagrelor at 1.25 h
  Flow Cytometry IPR: 79 ± 22
  Flow Cytometry PR: 8.3 ± 6.9
platelets; 3 h, All
  Flow Cytometry IPR: 86 ± 13
  Flow Cytometry PR: 6.5 ± 4.1
platelets; 3 h, Ticagrelor at 0.5 h
  Flow Cytometry IPR: 87 ± 10
  Flow Cytometry PR: 6.8 ± 2.9
platelets; 3 h, Ticagrelor at 1.25 h
  Flow Cytometry IPR: 86 ± 16
  Flow Cytometry PR: 6.2 ± 5.3
platelets; 4 h, All
  Flow Cytometry IPR: 84 ± 15
  Flow Cytometry PR: 7.5 ± 6.2
platelets; 4 h, Ticagrelor at 0.5 h
  Flow Cytometry IPR: 90 ± 4
  Flow Cytometry PR: 5.5 ± 2.4
platelets; 4 h, Ticagrelor at 1.25 h
  Flow Cytometry IPR: 78 ± 20
  Flow Cytometry PR: 9.5 ± 8.2
platelets; reference 5.25 h, All
  Flow Cytometry IPR: 91 ± 6
  Flow Cytometry PR: 5 ± 3.6
platelets; [2]
  Flow Cytometry IPR: 91 ± 4
  Flow Cytometry PR: 5.5 ± 3.9
platelets; [3]
  Flow Cytometry IPR: 91 ± 7
  Flow Cytometry PR: 4.5 ± 2
